Patent publication US20230339851A1, “CXCR6 SULFONAMIDE COMPOUNDS” (CHEMOCENTRYX, INC., priority 2022, published 2023)

Target: T1, human CXCR6 (Homo sapiens, UniProt O00574)
T1 construct: expressed in transfected cells
Experiment: Radioligand Binding Assay (125I-CXCL16 displacement)
Details: L1.2 cells stably transfected with human CXCR6 cDNA, 0.1 nM 125I-CXCL16, 4° C., three-hour incubation; read-out: Potency (IC50)
Summary of the method: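 Displacement of 0.1 nM 125I-CXCL16 from human CXCR6 stably expressed in L1.2 cells was measured after a 3 h, 4 °C incubation in HBSS with 0.1% BSA. Filter-bound cpm were counted, and IC50 values came from a 3-parameter nonlinear fit.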

T1 sequence (O00574 whole entry): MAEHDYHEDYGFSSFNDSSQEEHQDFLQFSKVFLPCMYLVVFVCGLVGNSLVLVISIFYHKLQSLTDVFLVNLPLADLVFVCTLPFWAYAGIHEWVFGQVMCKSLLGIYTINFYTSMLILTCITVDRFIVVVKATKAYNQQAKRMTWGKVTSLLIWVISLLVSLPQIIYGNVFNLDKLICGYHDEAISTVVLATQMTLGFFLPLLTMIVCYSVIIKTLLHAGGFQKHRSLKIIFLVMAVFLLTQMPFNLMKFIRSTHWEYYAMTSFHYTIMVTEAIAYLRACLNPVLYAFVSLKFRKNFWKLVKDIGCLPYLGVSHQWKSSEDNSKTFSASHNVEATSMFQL

| Compound | IC50 |
| --- | --- |
| CCOc1cc(NC(=O)C(O)C(F)(F)F)ccc1S(=O)(=O)Nc1cccc(OC(F)(F)F)c1 (centres unmarked) [Example 1.406] | ≤ 0.2 µM |
| CCOc1cc(NC(=O)C2CCC(=O)C2)ccc1S(=O)(=O)Nc1cccc(OC(F)(F)F)c1 (centres unmarked) [Example 1.152] | 0.2 to 0.75 µM |
| CCOc1cc(NC(=O)C(O)Cc2ccccc2)ccc1S(=O)(=O)Nc1cccc(OC(F)(F)F)c1 (centres unmarked) [Example 1.182] | ≤ 0.2 µM |
| Cc1cc(NC(=O)c2ccns2)ccc1S(=O)(=O)Nc1cccc(C(F)(F)F)c1 [Example 1.346] | ≤ 0.2 µM |
| CCOc1cc(NC(=O)[C@@H](CO)C(C)C)ccc1S(=O)(=O)Nc1cccc(Cl)c1Cl [Example 1.054] | 0.2 to 0.75 µM |
| CCOc1cc(NC(=O)C(CCO)C(F)(F)F)ccc1S(=O)(=O)Nc1cccc(OC(F)(F)F)c1 (centres unmarked) [Example 1.335] | ≤ 0.2 µM |
| CCOc1cc(NC(=O)[C@@H](O)C(C)C)ccc1S(=O)(=O)Nc1ccc(F)c(C(F)(F)F)c1 [Example 1.084] | ≤ 0.2 µM |
| COc1cc(NC(=O)C2CCCCC2=O)ccc1S(=O)(=O)Nc1cccc(OC(F)(F)F)c1 (centres unmarked) [Example 1.457] | 2 to 20 µM |
| CCOc1cc(NC(=O)c2ccnnc2)ccc1S(=O)(=O)Nc1cccc(OC(F)(F)F)c1 [Example 1.530] | ≤ 0.2 µM |
| COc1cc(NC(=O)CC2CCCCC2)ccc1S(=O)(=O)Nc1cccc(C(F)(F)F)c1 [Example 1.344] | ≤ 0.2 µM |
| CCCc1cc(C(=O)Nc2ccc(S(=O)(=O)Nc3cccc(C(F)(F)F)c3)c(OC)c2)n(C)n1 [Example 1.578] | 0.75 to 2 µM |
| CCOc1cc(NC(=O)[C@@H](O)C(C)C)ccc1S(=O)(=O)Nc1ccc(C)c(OC(F)(F)F)c1 [Example 1.205] | ≤ 0.2 µM |
| CCOc1cc(NC(=O)C2COCCO2)ccc1S(=O)(=O)Nc1cccc(OC(F)(F)F)c1 (centres unmarked) [Example 1.282] | 0.75 to 2 µM |
| CCOc1cc(NC(=O)C(CC)CO)ccc1S(=O)(=O)Nc1cccc(OC(F)(F)F)c1 (centres unmarked) [Example 1.418] | ≤ 0.2 µM |
| CCOc1cc(NC(=O)[C@@H](CO)C(C)C)ccc1S(=O)(=O)Nc1ccc(Cl)cc1 [Example 1.044] | 0.2 to 0.75 µM |
| CCOc1cc(NC(=O)Cc2ccccc2)ccc1S(=O)(=O)Nc1cccc(OC(F)(F)F)c1 [Example 1.097] | ≤ 0.2 µM |
| CCc1cc(NC(C)=O)ccc1S(=O)(=O)Nc1cccc(C(F)(F)F)c1 [Example 1.382] | 0.75 to 2 µM |
| COc1cc(NC(=O)C2CC3C=CC2C3)ccc1S(=O)(=O)Nc1cccc(C(F)(F)F)c1 (centres unmarked) [Example 1.077] | 2 to 20 µM |
| CCOc1cc(NC(=O)[C@@H](O)C(C)C)ccc1S(=O)(=O)Nc1ccc(C2CC2)c(OC(F)(F)F)c1 [Example 1.521] | ≤ 0.2 µM |
| CCOc1cc(NC(=O)C2CCO[C@@H]2C)ccc1S(=O)(=O)Nc1cccc(OC(F)(F)F)c1 (mixture of isomers) [Example 1.137] | 0.2 to 0.75 µM |
| COc1cc(NC(=O)c2ccnn2C)ccc1S(=O)(=O)Nc1ccc(C#N)cc1 [Example 1.491] | 2 to 20 µM |
| Cc1cc(NC(=O)C2CCCCC2C)ccc1S(=O)(=O)Nc1cccc(C(F)(F)F)c1 (centres unmarked) [Example 1.538] | 0.75 to 2 µM |
| COc1cc(NC(=O)c2ccn[nH]2)ccc1S(=O)(=O)Nc1cccc(C(F)(F)F)c1 [Example 1.055] | 0.75 to 2 µM |
| COc1cc(NC(=O)CC(C)(C)O)ccc1S(=O)(=O)Nc1cccc(C(F)(F)F)c1 [Example 1.122] | 2 to 20 µM |

| Compound | IC50 |
| --- | --- |
| COc1cc(NC(=O)c2ccnn2C)ccc1S(=O)(=O)Nc1ccc(C)c(OC(F)(F)F)c1 [Example 1.151] | ≤ 0.2 µM |
| CCOc1cc(NC(=O)c2cccnc2)ccc1S(=O)(=O)Nc1cccc(OC(F)(F)F)c1 [Example 1.403] | ≤ 0.2 µM |
| CCOc1cc(NC(=O)C2CC3CCC2O3)ccc1S(=O)(=O)Nc1cccc(OC(F)(F)F)c1 (centres unmarked) [Example 1.061] | ≤ 0.2 µM |
| Cc1ccccc1C(=O)Nc1ccc(S(=O)(=O)Nc2cccc(C(F)(F)F)c2)c(C)c1 [Example 1.293] | 0.2 to 0.75 µM |
| COc1cc(NC(=O)[C@@H](CO)c2ccccc2)ccc1S(=O)(=O)Nc1cccc(OC(F)(F)F)c1 [Example 1.235] | 0.2 to 0.75 µM |
| CCOc1cc(NC(=O)C2CC=CC[C@H]2N)ccc1S(=O)(=O)Nc1cccc(OC(F)(F)F)c1 (mixture of isomers) [Example 1.026] | 0.75 to 2 µM |
| CCOc1cc(NC(=O)Cc2ccccc2OC)ccc1S(=O)(=O)Nc1cccc(OC(F)(F)F)c1 [Example 1.566] | 0.2 to 0.75 µM |
| CCOc1cc(NC(=O)[C@H]2CC[C@H](OC)CC2)ccc1S(=O)(=O)Nc1cccc(OC(F)(F)F)c1 [Example 1.028] | 0.75 to 2 µM |
| COc1cc(NC(=O)[C@@H]2CCC[C@@H](OC)C2)ccc1S(=O)(=O)Nc1cccc(C(F)(F)F)c1 [Example 1.554] | 2 to 20 µM |
| COc1cc(NC(=O)C(CO)c2ccccc2)ccc1S(=O)(=O)Nc1cccc(C(F)(F)F)c1 (centres unmarked) [Example 1.206] | 0.2 to 0.75 µM |
| CCOc1cc(NC(=O)[C@@H](CO)C2CC2)ccc1S(=O)(=O)Nc1cccc(C(C)C)c1 [Example 1.025] | ≤ 0.2 µM |
| Cc1cc(NC(=O)C2CCNCC2)ccc1S(=O)(=O)Nc1cccc(C(F)(F)F)c1 [Example 1.381] | 2 to 20 µM |
| CCOc1cc(NC(=O)c2ccc(OC)cc2)ccc1S(=O)(=O)Nc1cccc(OC(F)(F)F)c1 [Example 1.568] | 0.75 to 2 µM |
| CCC(C)[C@H](O)C(=O)Nc1ccc(S(=O)(=O)Nc2cccc(OC(F)(F)F)c2)c(OC)c1 (some centres unmarked) [Example 1.391] | ≤ 0.2 µM |
| Cc1cc(NC(=O)C2CCOC2)ccc1S(=O)(=O)Nc1cccc(C(F)(F)F)c1 (centres unmarked) [Example 1.249] | 2 to 20 µM |
| CCOc1cc(NC(=O)[C@@H](O)C(C)C)ccc1S(=O)(=O)Nc1ccc(C)c(CC)c1 [Example 1.402] | ≤ 0.2 µM |
| CCCc1cc(NC(=O)[C@@H](CO)c2ccccc2)ccc1S(=O)(=O)Nc1cccc(OC(F)(F)F)c1 [Example 1.509] | ≤ 0.2 µM |
| CCOc1cc(NC(=O)C2CCN(C(C)=O)CC2)ccc1S(=O)(=O)Nc1cccc(OC(F)(F)F)c1 [Example 1.161] | 2 to 20 µM |
| CCOc1cc(NC(=O)C2CCC(O)CC2)ccc1S(=O)(=O)Nc1cccc(OC(F)(F)F)c1 (centres unmarked) [Example 1.285] | 2 to 20 µM |
| CCOc1cc(NC(=O)C2CC=CCC2)ccc1S(=O)(=O)Nc1cccc(OC(F)(F)F)c1 (centres unmarked) [Example 1.480] | 0.2 to 0.75 µM |
| CC(=O)Nc1ccc(S(=O)(=O)Nc2cccc(C(F)(F)F)c2)c(C(C)C)c1 [Example 1.573] | 2 to 20 µM |
| COCc1cc(NC(=O)[C@@H](O)C(C)C)ccc1S(=O)(=O)Nc1cccc(OC(F)(F)F)c1 [Example 1.188] | ≤ 0.2 µM |
| CCOc1cc(NC(=O)[C@H]2CC(C)=C(C)C[C@@H]2CO)ccc1S(=O)(=O)Nc1cccc(OC(F)(F)F)c1 [Example 1.250] | ≤ 0.2 µM |
| CCOc1cc(NC(=O)C(O)c2ccc3c(c2)OCO3)ccc1S(=O)(=O)Nc1cccc(OC(F)(F)F)c1 (centres unmarked) [Example 1.091] | 0.2 to 0.75 µM |

| Compound | IC50 |
| --- | --- |
| CCOc1cc(NC(=O)CCOC)ccc1S(=O)(=O)Nc1cccc(OC(F)(F)F)c1 [Example 1.186] | 0.75 to 2 µM |
| CCOc1cc(NC(=O)[C@@H](CO)c2ccccc2)ccc1S(=O)(=O)Nc1ccc(OC)c(C(F)(F)F)c1 [Example 1.546] | 0.2 to 0.75 µM |
| COc1cc(NC(=O)[C@@H](O)C(C)C)ccc1S(=O)(=O)Nc1ccc(C)c(C(F)(F)F)c1 [Example 1.369] | 0.2 to 0.75 µM |
| CCOc1cc(NC(=O)[C@@H](CO)C(C)C)ccc1S(=O)(=O)Nc1ccc(C)c(C(F)(F)F)c1 [Example 1.102] | ≤ 0.2 µM |
| Cn1nccc1C(=O)Nc1ccc(S(=O)(=O)Nc2cccc(C(F)(F)F)c2)c(Cl)c1 [Example 1.141] | 0.2 to 0.75 µM |
| Cc1cc(NC(=O)C2(C)CCCCC2)ccc1S(=O)(=O)Nc1cccc(C(F)(F)F)c1 [Example 1.265] | 2 to 20 µM |
| CC(C)[C@H](O)C(=O)Nc1ccc(S(=O)(=O)Nc2cccc(OC(F)(F)F)c2)c(Cl)c1 [Example 1.078] | ≤ 0.2 µM |
| COc1cc(NC(=O)[C@@H](CO)C(C)C)ccc1S(=O)(=O)Nc1cccc(C(F)(F)F)c1 [Example 1.460] | ≤ 0.2 µM |
| C[C@@H]1COCC[C@@H]1C(=O)Nc1ccc(S(=O)(=O)Nc2cccc(OC(F)(F)F)c2)c(C#N)c1 (racemic) [Example 1.341] | 2 to 20 µM |
| CC(C)Oc1cc(NC(=O)c2ccns2)ccc1S(=O)(=O)Nc1cccc(C(F)(F)F)c1 [Example 1.542] | 2 to 20 µM |
| CCc1cc(NC(=O)C2CCOCC2)ccc1S(=O)(=O)Nc1cccc(OC(F)(F)F)c1 [Example 1.056] | ≤ 0.2 µM |
| CCOc1cc(NC(=O)c2ccn(CC)c(=O)c2)ccc1S(=O)(=O)Nc1cccc(OC(F)(F)F)c1 [Example 1.396] | ≤ 0.2 µM |
| CCOc1cc(NC(=O)CC(O)C2CCCOC2)ccc1S(=O)(=O)Nc1cccc(OC(F)(F)F)c1 (centres unmarked) [Example 1.230] | 0.75 to 2 µM |
| CCOc1cc(NC(=O)[C@@H](CO)C(C)C)ccc1S(=O)(=O)Nc1cccc(C2CC2)c1 [Example 1.082] | ≤ 0.2 µM |
| CCOc1cc(NC(=O)c2ccnn2C)ccc1S(=O)(=O)Nc1cccc(OC(F)(F)F)c1 [Example 1.157] | ≤ 0.2 µM |
| CCOc1cc(NC(=O)c2ccc[n+]([O-])c2)ccc1S(=O)(=O)Nc1cccc(OC(F)(F)F)c1 [Example 1.510] | ≤ 0.2 µM |
| CCOc1cc(NC(=O)[C@H]2CCCC[C@H]2C(=O)O)ccc1S(=O)(=O)Nc1ccc(C)c(OC(F)(F)F)c1 (racemic) [Example 1.314] | 0.75 to 2 µM |
| CCOc1cc(NC(=O)[C@@H](O)c2ccccc2)ccc1S(=O)(=O)Nc1ccc(Cl)c(OC(F)(F)F)c1 [Example 1.262] | ≤ 0.2 µM |
| CCOc1cc(NC(=O)[C@@H](CO)C2CC2)ccc1S(=O)(=O)Nc1cccc(C(F)(F)F)c1 [Example 1.494] | ≤ 0.2 µM |
| COc1cc(NC(=O)c2ccnn2C)ccc1S(=O)(=O)Nc1ccc(OC(F)(F)F)cc1 [Example 1.228] | 0.2 to 0.75 µM |
| CCOc1cc(NC(=O)CC(C)(O)C(F)(F)F)ccc1S(=O)(=O)Nc1cccc(OC(F)(F)F)c1 (centres unmarked) [Example 1.512] | 0.2 to 0.75 µM |
| Cc1cc(NC(=O)c2nccn2C)ccc1S(=O)(=O)Nc1cccc(C(F)(F)F)c1 [Example 1.116] | 2 to 20 µM |
| CCOc1cc(NC(=O)[C@@H](NC(C)=O)C(C)CC)ccc1S(=O)(=O)Nc1cccc(OC(F)(F)F)c1 (some centres unmarked) [Example 1.349] | ≤ 0.2 µM |
